Consider one compound from paper PMC3204379 (Journal of molecular biology, 2011).

The assay has as its target PtpA (Staphylococcus aureus, UniProt P0C5D2). Kind of assay: phosphatase activity. In kind it is biochemical. The following applies: artificial substrate; conditions not given.

PtpA, sequence (P0C5D2 whole entry): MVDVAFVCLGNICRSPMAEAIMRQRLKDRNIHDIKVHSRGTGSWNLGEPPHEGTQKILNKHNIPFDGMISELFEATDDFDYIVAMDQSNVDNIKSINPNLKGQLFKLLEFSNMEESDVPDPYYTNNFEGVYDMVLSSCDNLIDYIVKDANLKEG

With `O=[N+]([O-])c1ccc(OP(=O)(O)O)cc1` [para-nitrophenol phosphate], the “phosphatase activity (data not shown)” value is reported as “activity of PtpA with the artificial phosphatase substrate para-nitrophenol phosphate”.
